Structures can show the parent of a compound that is named as a salt.
Tested on: VCAM-1
Assay: VCAM-1 assay with ELISA readout (Examples 5-6)
Format: cell-based
Details: 16 h, TNF added with compound, incubated overnight (approximately 16 hours)
Experimental: Two to four confluent P150 plates are trypsinized and the cells transferred to a 50 mL conical centrifuge tube. The cells are pelleted, resuspended, and counted using the trypan blue exclusion method.
Cells are resuspended at a concentration of 36,000 cells/mL and 1 mL is aliquoted per well.
Cells are split into 24 well tissue culture plates. The cells in each well should be approximately 90-95% confluent by the following day. Cells should not be older than passage 8.
Compounds are initially screened at 50 μM and 10 μM. A 50 mM stock solution for each compound is prepared in culture medium. The stock solution is diluted to 5 mM and 1 mM. When 10 μL of the 5 mM solution is added to the well (1 mL medium/well), the final concentration will be 50 μM. Adding 10 μL of the 1 mM solution to the well will give a final concentration of 10 μM.
Compounds which will not go into solution in culture medium are resuspended in DMSO at a concentration of 25 mM. The stock solution is then diluted to the final concentration in culture medium. The old medium is aspirated and 1 mL of the new medium with the compound is added. For example, if the final concentration is 50 µM, the 2 μL of the 25 mM stock is added per mL of culture medium. The […] solution is diluted for lower concentrations.
The compounds are added to the plate (each compound is done in duplicate). One plate is done for VCAM expression and one plate is done for ICAM expression.
Immediately after the compounds are added, TNF is added to each well. 100 units/mL TNF is usually added to each well. Since each lot of TNF varies in the number of units, each new lot is titrated to determine the optimum concentration. Therefore this concentration will change. If 100 units/mL is being used, dilute the TNF to 10 units/μL and add 10 μL to each well.
The plates are incubated at 37° C., 5% CO2 overnight (approximately 16 hours). The next day the plates are checked under the microscope to see if there are any visual signs of toxicity. Records are made of any cell death, debris, or morphology changes, as well as insoluble compounds (particulate or turbity).
In order to assess MCP-1, the media (500 μL) is saved and frozen at −70° C. Wash cells once with roughly 1 ml/well of Hanks Balance Salt Solution (HBSS) or PBS. Gently empty the wash solution and then tap the plate onto paper towels. Add either 250 μL/well of HBSS+5% FCCS to the plank (no primary antibody wells) or 250 μL/well of primary antibody diluted in HBSS+5% FCS. Incubate for 30 minutes at 37° C. Wash the wells twice with 0.5 mL/well HBSS or PBS and gently tap the plates onto paper towels after the last wash. Add 250 μL/well of HRP-conjugated second antibody diluted in HBSS+5% FCS to every well including the blank wells (no primary antibody). Incubate at 37° C. for 30 minutes. Wash the wells four times with 0.5 mL/well HBSS or PBS and gently tap the plates onto paper towels after the last wash. Add 250 μL/well of substrate solution. Incubate at room temperature in the dark until there is adequate color development (blue). Note the length of time incubation was performed (typically 15-30 minutes). Add 75 μL/well stopper solution (8N sulfuric acid), and read at 450 nm.

Row | Compound | IC50 [µM]
1 | CC(C)(Sc1cc(C(C)(C)C)c(O)c(C(C)(C)C)c1)Sc1cc(C(C)(C)C)c(OCC(=O)O)c(C(C)(C)C)c1 [Acetic acid, [4-[[1-[[3,5-bis(1,1-dimethylethyl)-4-hydroxyphenyl]thio]-1-methylethyl]thio]2,6-bis(1,1-dimethylethyl)phenoxy]-] | 10
2 | CC(C)(Sc1cc(C(C)(C)C)c(O)c(C(C)(C)C)c1)Sc1cc(C(C)(C)C)c(OC[C@@H](O)[C@@H](O)[C@H](O)[C@@H](O)CO)c(C(C)(C)C)c1 [D-Glucitol, 6-O-[4-[[1-[[3,5-bis(1,1-dimethylethyl)-4-hydroxyphenyl]thio]-1-methylethyl]thio]-2,6-bis(1,1-dimethylethyl)phenyl]-] | 15
3 | CC(C)(Sc1cc(C(C)(C)C)c(O)c(C(C)(C)C)c1)Sc1cc(C(C)(C)C)c(OCCCCO)c(C(C)(C)C)c1 [Phenol, 4-[[1-[[3,5-bis(1,1-dimethylethyl)-4-(4-hydroxybutoxy)phenyl]thio]-1-methylethyl]thio]-2,6-bis(1,1-dimethylethyl)-] | 125
4 | CC(C)(Sc1cc(C(C)(C)C)c(O)c(C(C)(C)C)c1)Sc1cc(C(C)(C)C)c(OCCCC(=O)O)c(C(C)(C)C)c1 [Butanoic acid, 4-[4-[[1-[[3,5-bis(1,1-dimethylethyl)-4-hydroxyphenyl]thio]-1-methylethyl]thio]-2,6-bis(1,1-dimethylethyl)phenoxy]-] | 11
5 | CN(C)c1ccc(CCOc2c(C(C)(C)C)cc(SC(C)(C)Sc3cc(C(C)(C)C)c(O)c(C(C)(C)C)c3)cc2C(C)(C)C)cc1 [Phenol, 4-[[1-[[4-[2-[4-(dimethylamino)phenyl]ethoxy]-3,5-bis(1,1-dimethylethyl)phenyl]thio]-1-methylethyl]thio]-2,6-bis(1,1-dimethylethyl)-] | 55
6 | CC(C)(Sc1cc(C(C)(C)C)c(O)c(C(C)(C)C)c1)Sc1cc(C(C)(C)C)c(OCC(=O)N[C@@H](CCC(=O)O)C(=O)O)c(C(C)(C)C)c1 [Glutamic acid, N-[[4-[[1-[[3,5-bis(1,1-dimethylethyl)-4-hydroxyphenyl]thio]-1-methylethyl]thio]-2,6-bis(1,1-dimethylethyl)phenoxy]acetyl]-] | 75
7 | CC(C)(Sc1cc(C(C)(C)C)c(O)c(C(C)(C)C)c1)Sc1cc(C(C)(C)C)c(OC(=O)CCCC(=O)O)c(C(C)(C)C)c1 [Pentanedioic acid mono[4-[[1-[[3,5-bis(1,1-dimethylethyl)-4-hydroxyphenyl]thio]-1-methylethyl]thio]-2,6-bis(1,1-dimethylethyl)phenyl] ester] | 8.7
8 | CC(C)(CO)CC(=O)Oc1c(C(C)(C)C)cc(SC(C)(C)Sc2cc(C(C)(C)C)c(O)c(C(C)(C)C)c2)cc1C(C)(C)C [Butanoic acid, 4-hydroxy-3,3-dimethyl-, 4-[[1-[[3,5-bis(1,1-dimethylethyl)-4-hydroxyphenyl]thio]-1-methylethyl]thio]-2,6-bis(1,1-dimethylethyl)phenyl ester] | 110
9 | CC(C)(Sc1cc(C(C)(C)C)c(O)c(C(C)(C)C)c1)Sc1cc(C(C)(C)C)c(OC(=O)CN)c(C(C)(C)C)c1 [Glycine, 4-[[1-[[3,5-bis(1,1-dimethylethyl)-4-hydroxyphenyl]thio]-1-methylethyl]thio]-2,6-bis(1,1-dimethylethyl)phenyl ester] | 5
10 | CC(C)(Sc1cc(C(C)(C)C)c(O)c(C(C)(C)C)c1)Sc1cc(C(C)(C)C)c(OC[C@H]2OC(O)[C@H](O)[C@@H](O)[C@@H]2O)c(C(C)(C)C)c1 (stereo partly drawn) [D-Glucopyranose, 6-O-[4-[[1-[[3,5-bis(1,1-dimethylethyl)-4-hydroxyphenyl]thio]-1-methylethyl]thio]-2,6-bis(1,1-dimethylethyl)phenyl]-] | 10
11 | CC(C)(Sc1cc(C(C)(C)C)c(O)c(C(C)(C)C)c1)Sc1cc(C(C)(C)C)c(OC=CCO)c(C(C)(C)C)c1 [Phenol, 4-[[1-[[3,5-bis(1,1-dimethylethyl)-4-[[3-hydroxy-1-propenyl)oxy]phenyl]thio]-1-methylethyl]thio]-2,6-bis(1,1-dimethylethyl)-] | 55
12 | CC(C)(Sc1cc(C(C)(C)C)c(O)c(C(C)(C)C)c1)Sc1cc(C(C)(C)C)c(OCC(O)CNCC(=O)O)c(C(C)(C)C)c1 (centres unmarked) [Glycine, N-[3-[4-[[1-[[3,5-bis(1,1-dimethylethyl)-4-hydroxyphenyl]thio]-1-methylethyl]thio]-2,6-bis(1,1-dimethylethyl)phenoxy]2-hydroxypropyl]-] | 16
13 | CC(C)(Sc1cc(C(C)(C)C)c(O)c(C(C)(C)C)c1)Sc1cc(C(C)(C)C)c(OCCCCN)c(C(C)(C)C)c1 [Phenol, 4-[[1-[[4-(4-aminobutoxy)-3,5-bis(1,1-dimethylethyl)phenyl]thio]-1-methylethyl]thio]2,6-bis(1,1-dimethylethyl)-] | 8
14 | CC(C)(Sc1cc(C(C)(C)C)c(O)c(C(C)(C)C)c1)Sc1cc(C(C)(C)C)c(OC(=O)c2ccc([N+](=O)[O-])o2)c(C(C)(C)C)c1 [2-Furancarboxylic acid, 5-nitro-, 4-[[1-[[3,5-bis(1,1-dimethylethyl)-4-hydroxyphenyl]thio]-1-methylethyl]thio]-2,6-bis(1,1-dimethylethyl)phenyl ester] | 25

Same assay, conditions: TNF added with compound, incubated overnight (approximately 16 hours)

Row | Compound | IC50 [µM]
15 | Butanedioic acid, mono[4-[[1-[[3,5-bis(1,1-dimethylethyl)-4-methoxyphenyl]thio]1-methylethyl]thio]-2,6-bis(1,1-dimethylethyl)phenyl] ester | > 50
16 | CN(C)c1ccc(CCOc2c(C(C)(C)C)cc(SC(C)(C)Sc3cc(C(C)(C)C)c(OCCc4ccc(N(C)C)cc4)c(C(C)(C)C)c3)cc2C(C)(C)C)cc1 [Benzenamine, 4,4′-[(1-methylethylidene)bis [thio[2,6-bis(1,1-dimethylethyl)-4,1-phenylene]oxy-2,1-ethanediyl]]bis[N,N-dimethyl-] | > 50
17 | CC(C)(C)c1cc(SCc2ccc(F)cc2)cc(C(C)(C)C)c1O [2,6-di-tert-butyl-4-thio(4′-fluorobenzyl)phenol] | 35
18 | CC1(C)OC2OC(COc3c(C(C)(C)C)cc(SC(C)(C)Sc4cc(C(C)(C)C)c(O)c(C(C)(C)C)c4)cc3C(C)(C)C)C3OC(C)(C)OC3C2O1 [α-D-Galactopyranose, 6-O-[4-[[1-[[3,5-bis(1,1-dimethylethyl)-4-hydroxyphenyl]thio]-1-methylethyl]thio]-2,6-bis(1,1-dimethylethyl)phenyl]-1,2:3,4-bis-O-(1-methylethylidene)] | 45
19 | CC(C)(Sc1cc(C(C)(C)C)c(OC(=O)CN)c(C(C)(C)C)c1)Sc1cc(C(C)(C)C)c(OC(=O)CN)c(C(C)(C)C)c1 [Glycine, (1-methylethylidene)bis[bis[thio-2,6-bis(1,1-dimethylthyl)-4,1-phenylene]]ester, dihydrochloride] | > 50
20 | 2,6-di-tert-butyl-4-thio(3′,5′-ditert-butyl,4′-hydroxy butanedioic acid ester)phenol | 6
21 | Oxiranemethanol, α-[[[3-[[4-[[1-[[3,5-bis(1,1-dimethylethyl)-4-hydroxyphenyl]thio]-1-methylethyl]thio]-2,6-bis(1,1-dimethylethyl)phenoxy]methyl]oxiranyl]methoxy]methyl]- | 60
22 | COc1c(C(C)(C)C)cc(SCc2ccc(C(F)(F)F)cc2)cc1C(C)(C)C [2,6-di-tert-butyl-1-methoxy-4-thio(4′-trifluoromethyl)benzyl)benzene] | > 50
23 | CC(=O)OC(C)(C)CSc1cc(C(C)(C)C)c(O)c(C(C)(C)C)c1 [2,6-di-tert-butyl-4-thio(2′-acetoxy,2′-methylpropyl)phenol] | 50
24 | CC(C)(Sc1cc(C(C)(C)C)c(O)c(C(C)(C)C)c1)Sc1cc(C(C)(C)C)c(OCCCCN)c(C(C)(C)C)c1 [Phenol, 4-[[1-[[4-(4-aminobutoxy)-3,5-bis(1,1-dimethylethyl)phenyl]thio]-1-methylethyl]thio]2,6-bis(1,1-dimethylethyl)-] | 9

Same assay, conditions: at 20 μM

Row | Compound | inhibition at 20 µM [%]
25 | Cc1cc(SC(C)(C)Sc2cc(C(C)(C)C)c(O)c(C(C)(C)C)c2)cc(C)c1OC(=O)CN [Glycine, 4-[[1-[[3,5-bis(1,1-dimethylethyl)-4-hydroxyphenyl]thio]-1-methylethyl]thio]-2,6-dimethylphenyl ester] | 10

Same assay, conditions: at 50 μM

Row | Compound | inhibition at 50 µM [%]
26 | CN(C)CCCOc1c(C(C)(C)C)cc(SC(C)(C)Sc2cc(C(C)(C)C)c(O)c(C(C)(C)C)c2)cc1C(C)(C)C [Phenol, 4-[[1-[[4-[3-(dimethylamino)propoxy]-3,5-bis(1,1-dimethylethyl)phenyl]thio]-1-methylethyl]thio]-2,6-bis(1,1-dimethylethyl)-] | 22

Source: patent publication US20060058268A1, “Compounds and methods for treating diabetic vascular diseases” (priority 2004, published 2006)
